Tested on: KRAS G12D mutant human metastatic pancreatic adenocarcinoma cells AsPC-1
Experiment: 3D cell proliferation inhibition assay, AsPC-1
Format: cell-based
Settings: ASPC1, 168 h, 7 days, CTG
Text: Test Example 4: 3D Cell Proliferation Inhibition Assay
The inhibitory effect of the compounds on the proliferation of 3D cells was investigated on KRAS G12C mutant human non-small cell lung cancer cells NCI-H358 (ATCC or Stem Cell Bank, Chinese Academy of Sciences), KRAS G12D mutant human metastatic pancreatic adenocarcinoma cells AsPC-1 (ATCC), KRAS G12V mutant human lung adenocarcinoma cells NCI-H441 (ATCC), and KRAS G13D mutant human colorectal adenocarcinoma epithelial cells DLD-1 (ATCC). The specific procedures were as follows:
200 nL of compound solution diluted in a gradient was added to corresponding microwells of a 384-well low-adsorption microwell plate (Corning, 3657) using an Echo sonic pipetting system (Labcyte, Echo 550), so that the final concentration of the test compound in the reaction system was in a range of 20000 nM-0.008 nM. Then 40 μL of cells at a certain density were added to the corresponding microplate. In addition to test wells for the test compounds, both a DMSO control well and a medium control well were set, with the DMSO control well containing DMSO and cells and the medium well containing only medium. […] The plate was incubated at room temperature for 30 min and read on a microplate reader EnVision using the chemiluminescence program. […]

**Q.** For `COc1cc2nc(C)nc(N[C@H](C)c3cc(-c4c(Cl)cccc4CN(C)C)cs3)c2cc1[C@H]1CC[C@H](C(=O)N2CCN(CC3CCC4(CC3)CCN(C(=O)c3ccc(Cl)c(N5CCC(=O)NC5=O)c3)CC4)CC2)CC1` [Example 1, 1-(2-chloro-5-(9-((4-((1R,4R)-4-(4-(((R)-1-(4-(2-chloro-6-((dimethylamino)methyl)phenyl)thien-2-yl)ethyl)amino)-7-methoxy-2-methylquinazolin-6-yl)cyclohexane-1-carbonyl)piperazin-1-yl)methyl)-3-azaspiro[5.5]undecane-3-carbonyl)phenyl)dihydropyrimidine-2,4(1H,3H)-dione], which IC50 is on record?
**A.** 0.015 to 0.03 µM

**Q.** How did the IC50 turn out when `COc1cc2nc(C)nc(N[C@H](C)c3cc(-c4c(Cl)cccc4CN(C)C)cs3)c2cc1[C@H]1CC[C@H](C(=O)N2CCC(CCOCC3CCN(C(=O)c4ccc(Cl)c(N5CCC(=O)NC5=O)c4)CC3)CC2)CC1` [Example 5, 1-(2-chloro-5-(4-((2-(1-((1R,4R)-4-(4-(((R)-1-(4-(2-chloro-6-((dimethylamino)methyl)phenyl)thien-2-yl)ethyl)amino)-7-methoxy-2-methylquinazolin-6-yl)cyclohexane-1-carbonyl)piperidin-4-yl)ethoxy)methyl)piperidine-1-carbonyl)phenyl)dihydropyrimidine-2,4(1H,3H)-dione] was run?
**A.** 0.1 to 1 µM

— patent US20240261418A1, “SOS1 DEGRADING AGENT AND PREPARATION METHOD THEREFOR AND APPLICATION THEREOF” (SHANGHAI LEADINGTAC PHARMACEUTICAL CO. LTD., priority 2021, published 2024)
